Results from publication PMC5863496, “Mesobuthus Venom-Derived Antimicrobial Peptides Possess Intrinsic Multifunctionality and Differential Potential as Drugs” (Frontiers in Microbiology, 2018).
Ends that are not written are not given here.

What was measured:
Test in all cases: Inhibition-zone assay (CL)
Format in all cases: cell-based
Escherichia coli D. J45b = conditions: EC D. J45b, N.A. = no activity at 0.8 nmol peptide each well
Procedure, shortened: (§1)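 Bacteria (~2 × 10^6 cells/ml) were seeded in 0.8% soft-agar medium (LB, Nutrient Broth or GYM) and grown at 30 or 37°C. Three peptide doses were placed in separate 2 mm wells, and inhibition zones were measured after overnight incubation. CL was calculated from the slope and intercept of a d^2 versus log n plot.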

[1] = tested on: Staphylococcus aureus J710; conditions: SA J710, N.A. = no activity at 0.8 nmol peptide each well
Procedure, shortened: as §1

[2] = tested on: Salmonella enterica ATCC 14028; conditions: SE ATCC 14028, N.A. = no activity at 0.8 nmol peptide each well
Procedure, shortened: as §1

[3] = tested on: Staphylococcus aureus J708; conditions: SA J708, N.A. = no activity at 0.8 nmol peptide each well
Procedure, shortened: as §1

[4] = tested on: Streptomyces griseus NBRC 13350; conditions: SG NBRC 13350, N.A. = no activity at 0.8 nmol peptide each well
Procedure, shortened: as §1

[5] = tested on: Bacillus cereus CGMCC 1.1846; conditions: BC CGMCC 1.1846, N.A. = no activity at 0.8 nmol peptide each well
Procedure, shortened: as §1

Escherichia coli TOP10 = conditions: EC TOP10, N.A. = no activity at 0.8 nmol peptide each well
Procedure, shortened: as §1

[6] = tested on: Staphylococcus aureus J706; conditions: SA J706, N.A. = no activity at 0.8 nmol peptide each well
Procedure, shortened: as §1

[7] = tested on: Streptomyces scabiei CGMCC 4.1765; conditions: SSCA CGMCC 4.1765, N.A. = no activity at 0.8 nmol peptide each well
Procedure, shortened: as §1

[8] = tested on: Pseudomonas aeruginosa 14; conditions: PA 14, N.A. = no activity at 0.8 nmol peptide each well
Procedure, shortened: as §1

[9] = tested on: Pseudomonas aeruginosa 11092304; conditions: PA 11092304, N.A. = no activity at 0.8 nmol peptide each well
Procedure, shortened: as §1

[10] = tested on: Alcaligenes faecalis CGMCC 1.1837; conditions: AF CGMCC 1.1837, N.A. = no activity at 0.8 nmol peptide each well
Procedure, shortened: as §1

[11] = tested on: Pseudomonas aeruginosa DH; conditions: PA DH, N.A. = no activity at 0.8 nmol peptide each well
Procedure, shortened: as §1

[12] = tested on: Pseudomonas aeruginosa 11082616; conditions: PA 11082616, N.A. = no activity at 0.8 nmol peptide each well
Procedure, shortened: as §1

[13] = tested on: Pseudomonas aeruginosa 11082603; conditions: PA 11082603, N.A. = no activity at 0.8 nmol peptide each well
Procedure, shortened: as §1

Candida albicans 4277 = conditions: CA 4277, 28°C, N.A. = no activity at 0.8 nmol peptide each well
Candida albicans SZ72 = conditions: CA SZ72, 28°C, N.A. = no activity at 0.8 nmol peptide each well
Candida albicans JX1016 = conditions: CA JX1016, 28°C, N.A. = no activity at 0.8 nmol peptide each well
Candida albicans 4259 = conditions: CA 4259, 28°C, N.A. = no activity at 0.8 nmol peptide each well
[14] = tested on: Geotrichum candidum CCTCC AY 93038; conditions: GC CCTCC AY 93038, 28°C, N.A. = no activity at 0.8 nmol peptide each well
[15] = tested on: Saccharomyces cerevisiae CCTCC AY 92003; conditions: SC CCTCC AY 92003, 28°C, N.A. = no activity at 0.8 nmol peptide each well
Candida albicans 4247 = conditions: CA 4247, 28°C, N.A. = no activity at 0.8 nmol peptide each well
Candida albicans SZ56 = conditions: CA SZ56, 28°C, N.A. = no activity at 0.8 nmol peptide each well
Candida albicans JX1009 = conditions: CA JX1009, 28°C, N.A. = no activity at 0.8 nmol peptide each well
Candida albicans 4257 = conditions: CA 4257, 28°C, N.A. = no activity at 0.8 nmol peptide each well

Compound | Lethal concentration (CL) (Escherichia coli D. J45b) [µM] | Lethal concentration (CL) [1] [µM] | Lethal concentration (CL) [2] [µM] | Lethal concentration (CL) [3] [µM] | Lethal concentration (CL) [4] [µM] | Lethal concentration (CL) [5] [µM] | Lethal concentration (CL) (Escherichia coli TOP10) [µM] | Lethal concentration (CL) [6] [µM] | Lethal concentration (CL) [7] [µM] | Lethal concentration (CL) [8] [µM] | Lethal concentration (CL) [9] [µM] | Lethal concentration (CL) [10] [µM] | Lethal concentration (CL) [11] [µM] | Lethal concentration (CL) [12] [µM] | Lethal concentration (CL) [13] [µM] | Lethal concentration (CL) (Candida albicans 4277) [µM] | Lethal concentration (CL) (Candida albicans SZ72) [µM] | Lethal concentration (CL) (Candida albicans JX1016) [µM] | Lethal concentration (CL) (Candida albicans 4259) [µM] | Lethal concentration (CL) [14] [µM] | further results
CC[C@H](C)[C@H](NC(=O)CN)C(=O)NCC(=O)N[C@@H](C)C(=O)N[C@H](C(=O)N[C@@H](CC(C)C)C(=O)N[C@@H](CCCCN)C(=O)N[C@H](C(=O)N[C@@H](CC(C)C)C(=O)N[C@H](C(=O)N[C@H](C(=O)NCC(=O)N[C@@H](CC(C)C)C(=O)N1CCC[C@H]1C(=O)N[C@@H](C)C(=O)N[C@@H](CC(C)C)C(=O)N[C@H](C(=O)N[C@@H](CO)C(=O)N[C@@H](Cc1c[nH]c2ccccc12)C(=O)N[C@H](C(=O)N[C@@H](CCCCN)C(=O)N[C@@H](CCCNC(=N)N)C(=O)N[C@@H](CCCCN)C(=O)N[C@@H](CCCNC(=N)N)C(=O)N[C@@H](CCC(N)=O)C(=O)N[C@@H](CCC(N)=O)C(N)=O)[C@@H](C)CC)[C@@H](C)CC)[C@@H](C)O)[C@@H](C)O)C(C)C)C(C)C [Melittin, reference compound] | 24.54 | 8.98 | 24.74 | 7.80 | 28.79 | 24.74 | 13.80 | 16.41 | 15.93 |  |  |  |  |  |  |  |  |  |  |  | 
FFGHLFKLATKIIPSFFRRKNQ [MAC-22] | 6.78 |  | 16.37 |  |  |  |  |  |  | 6.78 | 24.82 | 11.13 | 11.13 | 19.08 | 14.35 |  |  |  |  |  | 
FFGHLFKLATKIIPSLFQ [MUC-18, reference compound] | 22.72 | 5.16 | 35.64 | 6.86 | 31.40 |  |  | 4.86 | 4.45 | 31.40 | 31.40 | 18.64 |  | 31.40 |  |  |  |  |  |  | 
FFGHLFKLATKIIPSLFQRKKE [MUC-22] | 7.49 |  | 14.73 |  |  |  |  |  |  | 4.06 | 10.02 | 11.65 | 9.93 | 10.02 | 6.10 |  |  |  |  |  | 
FLFSLIPSAISGLINAFK-NH2 [MeuFSPL-2] |  | 7.04 |  | 6.21 |  | 19.57 | 11.58 | 7.04 | 7.75 |  |  |  |  |  |  | 7.06 | 12.72 | 23.35 | 12.61 | 24.94 | Lethal concentration (CL) [15]: 11.62 µM; Lethal concentration (CL) (Candida albicans 4247): 7.02 µM; Lethal concentration (CL) (Candida albicans SZ56): 14.80 µM; Lethal concentration (CL) (Candida albicans JX1009): 11.58 µM; Lethal concentration (CL) (Candida albicans 4257): 12.72 µM
FLFSLIPSAISGLISAFK-NH2 [MeuFSPL-1] |  | 10.92 |  | 10.92 | 6.81 | 15.33 | 9.94 | 10.92 | 1.77 |  |  |  |  |  |  | 6.25 | 21.82 | 28.38 | 14.80 | 17.70 | Lethal concentration (CL) [15]: 25.00 µM; Lethal concentration (CL) (Candida albicans 4247): 15.28 µM; Lethal concentration (CL) (Candida albicans SZ56): 21.82 µM; Lethal concentration (CL) (Candida albicans JX1009): 15.55 µM; Lethal concentration (CL) (Candida albicans 4257): 14.64 µM
FLFSLIPSAISGLISAFKGRRKRDLN-NH2 [MarMEL] | 6.24 | 8.41 | 1.61 | 4.69 | 5.19 | 6.69 | 4.10 | 8.41 | 1.56 |  | 24.95 |  | 14.29 | 8.41 | 8.41 | 7.04 | 6.70 | 14.29 | 5.17 | 6.34 | Lethal concentration (CL) [15]: 7.72 µM; Lethal concentration (CL) (Candida albicans 4247): 7.04 µM; Lethal concentration (CL) (Candida albicans SZ56): 8.49 µM; Lethal concentration (CL) (Candida albicans JX1009): 6.49 µM; Lethal concentration (CL) (Candida albicans 4257): 6.84 µM
